# ChEMBL document CHEMBL3352323, “Lead optimization of a pyrazole sulfonamide series of Trypanosoma brucei N-myristoyltransferase inhibitors: identification and evaluation of CNS penetrant compounds as potential treatments for stage 2 human African trypanosomiasis” (J Med Chem, 2014)
# Active and inactive are the calls of the source. No cut-off for these calls is given here.
# Tests used:
# [1] = Inhibition of Trypanosoma brucei N-myristoyltransferase assessed as transfer of [3H]-myristic acid to a biotinylated substrate peptide (GCGGSKVKPQPPQAK(biotin)-amide by scintillation proximity assay
# MRC5 = assay: cells; conditions: Homo sapiens, MRC5, 69 h
# Description: Antiproliferative activity against human MRC5 cells assessed as reduction cell viability incubated for 69 hrs by rezasurin dye based assay
# Trypanosoma brucei = assay: microbe, parasite or virus in culture; conditions: BSF427, 69 h
# Description: Antitrypanosomal activity against Trypanosoma brucei BSF427 expressing VSG118 infected in human MRC5 cells assessed as reduction cell viability incubated for 69 hrs by rezasurin dye based assay
# Mus musculus [2] = assay: (§1) Maximum tolerated dose in orally twice daily dosed mouse; format: ADME, organism-based; conditions: in vivo, po
# [3] = target: Voltage-gated inwardly rectifying potassium channel KCNH2 (Homo sapiens, UniProt Q12809); assay: Inhibition of human ERG
# Mus musculus [4] = assay: Toxicity in bloodstream form of Trypanosoma brucei beucei GVR35 infected NMRI mouse stage 2 human African trypanosomiasis model at 100 mg/kg, po bid for 5 days; format: organism-based; parameters: dose 100 mg/kg, route oral; conditions: in vivo, 120 h
# [5] = tested on: Trypanosoma brucei brucei; assay: Trypanocidal activity against bloodstream form of Trypanosoma brucei beucei GVR35 infected in NMRI mouse stage 2 human African trypanosomiasis model at 100 mg/kg, po bid for 8 days followed by three rounds of 3 day dosing at 100 mg/kg with two day drug holiday between rounds; format: functional, organism-based
# [6] = target: T1, Glycylpeptide N-tetradecanoyltransferase 1 (Homo sapiens, UniProt P30419); assay: Inhibition of human N-myristoyltransferase 1 assessed as transfer of [3H]-myristic acid to a biotinylated substrate peptide (GCGGSKVKPQPPQAK(biotin)-amide by scintillation proximity assay
# T1 sequence (P30419 whole entry): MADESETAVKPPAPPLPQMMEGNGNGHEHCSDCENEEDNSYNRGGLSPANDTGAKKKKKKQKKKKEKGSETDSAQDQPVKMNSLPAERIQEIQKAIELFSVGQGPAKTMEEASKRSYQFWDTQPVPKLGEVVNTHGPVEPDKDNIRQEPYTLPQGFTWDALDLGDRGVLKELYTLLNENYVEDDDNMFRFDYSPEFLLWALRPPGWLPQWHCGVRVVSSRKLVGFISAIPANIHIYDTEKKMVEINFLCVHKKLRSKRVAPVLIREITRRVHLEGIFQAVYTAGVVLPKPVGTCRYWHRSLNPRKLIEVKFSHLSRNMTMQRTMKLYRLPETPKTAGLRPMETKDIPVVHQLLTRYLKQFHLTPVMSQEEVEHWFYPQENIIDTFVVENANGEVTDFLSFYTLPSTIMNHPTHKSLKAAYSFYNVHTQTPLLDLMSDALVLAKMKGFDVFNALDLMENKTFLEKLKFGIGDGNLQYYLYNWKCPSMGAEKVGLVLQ
# [7] = Selectivity index, IC50 for human N-myristoyltransferase to EC50 for Trypanosoma brucei; format: functional
# Mus musculus [8] = assay: AUC (0 to 8 hrs) in NMRI mouse at 10 mg/kg, po by UPLC-MS/MS method; format: ADME, organism-based, Plasma; parameters: time < 8 hr, dose 10 mg/kg, route oral; conditions: in vivo
# Mus musculus [9] = assay: Oral bioavailability in NMRI mouse at 10 mg/kg by UPLC-MS/MS method; format: ADME, organism-based; conditions: in vivo
# [10] = tested on: Trypanosoma brucei rhodesiense; assay: Trypanocidal activity against bloodstream form of Trypanosoma brucei rhodesiense STIB900 infected in twice daily po dosed mouse; format: functional
# [11] = tested on: Trypanosoma brucei brucei; assay: Trypanocidal activity against bloodstream form of Trypanosoma brucei beucei GVR35 infected in NMRI mouse stage 2 human African trypanosomiasis model at 150 mg/kg, po bid for 5 days; format: functional, organism-based; parameters: dose 150 mg/kg
# [12] = as §1; format: ADME, organism-based; conditions: in vivo, po
# Mus musculus [13] = assay: Toxicity in bloodstream form of Trypanosoma brucei beucei GVR35 infected NMRI mouse stage 2 human African trypanosomiasis model at 150 mg/kg, po bid for 5 days; format: organism-based; parameters: dose 150 mg/kg, route oral; conditions: in vivo, 120 h
# [14] = Ratio of drug level in brain to blood in wild type NMRI mouse at 2 mg free base/kg, iv by UPLC-MS/MS method; format: ADME, organism-based; conditions: brain and blood, read-out: BBR
# [15] = Ratio of drug level in brain to blood in mdr1a-deficient mouse; format: ADME, organism-based; conditions: brain and blood, read-out: BBR
# Mus musculus [16] = assay: Toxicity in bloodstream form of Trypanosoma brucei beucei GVR35 infected NMRI mouse stage 2 human African trypanosomiasis model at 50 mg/kg, po bid for 5 days; format: organism-based; parameters: dose 50 mg/kg, route oral; conditions: in vivo, 120 h
# [17] = tested on: Trypanosoma brucei brucei; assay: Trypanocidal activity against bloodstream form of Trypanosoma brucei beucei GVR35 infected in NMRI mouse stage 2 human African trypanosomiasis model at 25 mg/kg, po bid for 10 days; format: functional, organism-based; parameters: dose 25 mg/kg
# [18] = tested on: Trypanosoma brucei brucei; assay: Trypanocidal activity against bloodstream form of Trypanosoma brucei beucei GVR35 infected in NMRI mouse stage 2 human African trypanosomiasis model at 50 mg/kg, po bid for 8 days; format: functional, organism-based; parameters: dose 50 mg/kg
# Mus musculus [19] = assay: Toxicity in bloodstream form of Trypanosoma brucei beucei GVR35 infected NMRI mouse stage 2 human African trypanosomiasis model at 50 mg/kg, po bid for 8 days; format: organism-based; parameters: dose 50 mg/kg, route oral; conditions: in vivo, 192 h
# [20] = tested on: Trypanosoma brucei brucei; assay: Trypanocidal activity against Trypanosoma brucei beucei GVR35 infected in NMRI mouse acute model dosed twice daily orally for 4 days; format: functional
# [21] = tested on: Trypanosoma brucei brucei; assay: Trypanocidal activity against Trypanosoma brucei beucei S427 infected in NMRI mouse acute model dosed twice daily orally for 4 days; format: functional
# [22] = Plasma protein binding in mouse; format: ADME, organism-based; conditions: read-out: PPB (converted)
# [23] = tested on: Trypanosoma brucei brucei; assay: Trypanocidal activity against bloodstream form of Trypanosoma brucei brucei S427 infected in mouse stage 1 HAT model at […], po bid for 4 days; format: functional, organism-based
# [24] = tested on: Trypanosoma brucei rhodesiense; assay: Trypanocidal activity against bloodstream form of Trypanosoma brucei rhodesiense STIB900 infected in mouse stage 1 HAT model at 50 mg/kg, po bid for 4 days; format: functional, organism-based; parameters: dose 50 mg/kg
# Chain of Voltage-gated inwardly rectifying potassium channel KCNH2 (Q12809 whole entry): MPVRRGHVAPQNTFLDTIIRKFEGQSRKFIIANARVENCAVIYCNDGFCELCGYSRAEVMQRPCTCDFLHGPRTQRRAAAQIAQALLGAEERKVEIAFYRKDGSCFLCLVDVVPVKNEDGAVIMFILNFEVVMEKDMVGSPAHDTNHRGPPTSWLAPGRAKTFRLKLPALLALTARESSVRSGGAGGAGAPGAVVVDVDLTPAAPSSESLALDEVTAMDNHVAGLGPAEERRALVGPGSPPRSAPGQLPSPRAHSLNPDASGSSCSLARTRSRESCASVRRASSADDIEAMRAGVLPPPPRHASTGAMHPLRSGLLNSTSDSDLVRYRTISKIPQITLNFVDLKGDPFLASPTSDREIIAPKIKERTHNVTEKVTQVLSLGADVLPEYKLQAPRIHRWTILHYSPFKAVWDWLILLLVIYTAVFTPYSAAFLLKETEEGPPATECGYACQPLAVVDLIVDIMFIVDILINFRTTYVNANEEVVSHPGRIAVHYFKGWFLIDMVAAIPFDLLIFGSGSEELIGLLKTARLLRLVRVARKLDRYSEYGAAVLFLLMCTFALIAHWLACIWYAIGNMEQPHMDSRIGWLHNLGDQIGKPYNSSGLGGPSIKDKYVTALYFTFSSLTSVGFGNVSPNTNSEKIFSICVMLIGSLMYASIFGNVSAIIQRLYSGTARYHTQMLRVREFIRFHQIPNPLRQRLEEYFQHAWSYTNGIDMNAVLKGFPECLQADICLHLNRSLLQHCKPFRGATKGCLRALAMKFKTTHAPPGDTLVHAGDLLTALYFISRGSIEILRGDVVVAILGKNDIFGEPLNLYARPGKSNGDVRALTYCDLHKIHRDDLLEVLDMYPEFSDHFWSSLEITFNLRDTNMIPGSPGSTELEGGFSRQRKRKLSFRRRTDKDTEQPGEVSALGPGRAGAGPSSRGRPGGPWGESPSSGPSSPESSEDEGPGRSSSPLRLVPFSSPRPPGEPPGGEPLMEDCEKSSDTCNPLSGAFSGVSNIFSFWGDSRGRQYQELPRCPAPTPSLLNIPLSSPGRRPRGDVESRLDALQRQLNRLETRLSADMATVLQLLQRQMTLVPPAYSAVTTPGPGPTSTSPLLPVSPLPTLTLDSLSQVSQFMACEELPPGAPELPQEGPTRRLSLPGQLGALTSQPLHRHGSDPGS
SMILES,IC50 [1] [nM],EC50 (MRC5) [nM],EC50 (Trypanosoma brucei) [nM],also measured
Cc1nn(C)c(C)c1NS(=O)(=O)c1c(Cl)cc(CCCCC2CCN(C)CC2)cc1Cl,1,180,0.5,
Cc1nn(C)c(C)c1N(C(F)F)S(=O)(=O)c1c(Cl)cc(CCCN2CCN3CCC[C@@H]3C2)cc1Cl,2,3100,,
Cc1nn(C)c(C)c1N(C(F)F)S(=O)(=O)c1c(Cl)cc(CCCOC[C@H]2CCCCN2C)cc1Cl,2,3500,,
Cc1nn(C)c(C)c1N(C(F)F)S(=O)(=O)c1c(Cl)cc(CCCC2CCN(C)CC2)cc1Cl,,,,MTD (Mus musculus [2]): 100 mg/kg; IC50 [3]: 600 nM; Activity (Mus musculus [4]): Toxic; inhibition [5]: Active
Cn1cc(NS(=O)(=O)c2c(Cl)cc(-c3ccnc(N4CCNCC4)c3)cc2Cl)cn1,,10300,370,
Cc1nn(C)c(C)c1NS(=O)(=O)c1ccc(CCCN2CCN(C)CC2)cc1,120,> 50000,750,IC50 [6]: 3500 nM; Selectivity Index [7]: 4.7
Cc1nn(C)c(C)c1NS(=O)(=O)c1c(Cl)cc(C#CCN2CCN(C)CC2)cc1Cl,160,> 50000,660,IC50 [6]: 4600 nM; Selectivity Index [7]: 7
Cc1c(NS(=O)(=O)c2c(Cl)cc(-c3ccnc(N4CCNCC4)c3)cc2Cl)c(CC(C)C)nn1C [ZELENIRSTAT],,,,AUC (Mus musculus [8]): 3400 µg/min/mL; F (Mus musculus [9]): 93%; MCD [10]: 6 mg/kg
Cc1nn(C)c(CC(C)C)c1NS(=O)(=O)c1c(Cl)cc(-c2ccnc(N3CCNCC3)c2)cc1Cl,6,640,5,
Cc1nn(C)c(C)c1N(C(F)F)S(=O)(=O)c1c(Cl)cc(CCCOC[C@@H]2CCCCN2C)cc1Cl,2,3900,,
Cc1nn(C)c(C)c1NS(=O)(=O)c1ccc(CCCCC2CCN(C)CC2)cc1,3,3600,16,
Cc1nn(C)c(C)c1NS(=O)(=O)c1ccc(CCCC2CCN(C)CC2)cc1,7,18700,30,
Cc1nn(C)c(C)c1N(CC(F)(F)F)S(=O)(=O)c1c(Cl)cc(CCCC2CCN(C)CC2)cc1Cl,,,,inhibition [11]: inactive
Cc1nn(C)c(C)c1NS(=O)(=O)c1c(Cl)cc(CCCN2CCN(C)CC2)cc1Cl,3,31400,,
Cc1nn(C)c(C)c1N(CC(F)(F)F)[S+](=O)([O-])c1c(Cl)cc(CCCC2CCN(C)CC2)cc1Cl,,,,MTD [12]: 150 mg/kg; Activity (Mus musculus [13]): Non-toxic
Cc1c(NS(=O)(=O)c2c(Cl)cc(-c3ccnc(N4CCNCC4)c3)cc2Cl)cnn1C,,1230,24,
Cc1nn(C)c(C)c1NS(=O)(=O)c1ccc(CCCC2CCNCC2)cc1,9,> 50000,110,
Cc1nn(C)c(C)c1NS(=O)(=O)c1c(Cl)cc(CCCC2CCNCC2)cc1Cl,2,2500,2,
Cc1nn(C)c(C)c1NS(=O)(=O)c1c(Cl)cc(C#Cc2cncn2C)cc1Cl,660,16600,3900,
Cc1nn(C)c(C)c1N(C)S(=O)(=O)c1c(Cl)cc(Br)cc1Cl,330,27200,5100,IC50 [6]: 3580 nM; Kp [14]: 3.7; Kp [15]: 3.7
Cc1nn(C)c(C)c1N(C(F)F)S(=O)(=O)c1c(Cl)cc(CCCCC2CCN(C)CC2)cc1Cl,,,,MTD (Mus musculus [2]): 50 mg/kg; Activity (Mus musculus [16]): Toxic; inhibition [17]: inactive; inhibition [18]: inactive; Activity (Mus musculus [19]): Toxic; MCD [20]: 25 mg/kg; MCD [21]: 6 mg/kg
Cc1nn(C)c(C)c1NS(=O)(=O)c1c(Cl)cc(CCCC2CCN(C)CC2)cc1Cl,2,2200,2,
Cc1nn(C)cc1NS(=O)(=O)c1c(Cl)cc(-c2ccnc(N3CCNCC3)c2)cc1Cl,4,250,2,
Cc1nn(C)c(C)c1N(C(F)F)S(=O)(=O)c1c(Cl)cc(CCCOC[C@@H]2CCCN2C)cc1Cl,2,2800,,
Cc1nn(C)c(C)c1NS(=O)(=O)c1c(Cl)cc(CCCCC2CCNCC2)cc1Cl,3,370,0.6,
Cc1nn(C)c(C)c1N(C(F)F)S(=O)(=O)c1c(Cl)cc(CCCOC[C@H]2CCCN2C)cc1Cl,2,3200,,
Cc1nn(C)c(C)c1NS(=O)(=O)c1ccc(CCCCC2CCNCC2)cc1,6,5300,9,
Cc1nn(C)c(C)c1NS(=O)(=O)c1c(Cl)cc(-c2ccnc(N3CCNCC3)c2)cc1Cl,,,,fraction unbound [22]: 0.06; Activity [23]: Active; Activity [24]: Active; AUC (Mus musculus [8]): 392 µg/min/mL; F (Mus musculus [9]): 20%; MCD [10]: 50 mg/kg
Cc1nn(C)c(C)c1NS(=O)(=O)c1c(Cl)cc(Br)cc1Cl,500,> 50000,16000,IC50 [6]: 7300 nM; Kp [14]: < 0.1; Kp [15]: < 0.1
